Results reported in patent US20250134899A1, “COMBINATION THERAPIES OF WDR5 INHIBITORS AND PD-1 INHIBITORS” (HUYABIO International, LLC, priority 2023, published 2025).

Tested on: GL261-Luc cells (syngeneic orthotopic gliomas)
Assay: GL261-luc intracranial orthotopic syngeneic brain (glioma) model, survival
Assay type: in vivo, C57BL/6J mice
Experimental: Female C57BL/6J mice (Beijing VR Laboratory Animal Co., LTD; 6 to 8 weeks old, approximately 18-22 g) were used for intracranial […] orthotopic glioma experiment. To establish syngeneic orthotopic gliomas, 200,000 GL261-Luc cells were stereotactically injected in a 3-μL volume of PBS mixed with 20% Matrigel into the left striatum over 1 minute, 3 mm deep from the cortical surface. Tumor burden was monitored by bioluminescence signal with IVIS imaging by injection 1.5 mg of luciferin per animal prior to imaging. On day 7 after implantation the mice were randomly allocated into treatment arms based on tumor radiance, so that the average tumor radiance in each group was approximately 8.50E+06 photon/sec (Day 0). Animals were treated for 28 days with HBI-2375 (80 mg/kg QD PO), Anti-PD-1 (RMP1-14) antibody (10 mg/kg BIW IP) and/or whole body radiation therapy (2 Gy/day×5 days) in monotherapy, doublet or triplet therapy and as described in the protocol.
The tumor take rate was 100%. Each arm had 10 mice in survival experiments. Study was terminated on Day 85.

SMILES: Cc1c(F)c(N)cc(C(=O)Nc2cc(-n3cc(C(=O)N4CCN(C)CC4)nn3)c(F)cc2N2C[C@@H](C)N(C)[C@@H](C)C2)c1Cl [HBI-2375, 5-amino-2-chloro-4-fluoro-N-(4-fluoro-5-(4-(4-methylpiperazine-1-carbonyl)-1H-1,2,3-triazol-1-yl)-2-((3S,5R)-3,4,5-trimethylpiperazin-1-yl)phenyl)-3-methylbenzamide]
- % Survival at Day 85 (Day 85, same dosing): 10%
- Median Survival (GL261-Luc intracranial, 10 mice per arm, treated 28 days, HBI-2375 80 mg/kg QD PO, anti-PD-1 10 mg/kg BIW IP, radiation 2 Gy/day x 5 days, study terminated Day 85): 17.5 days
- survival (in words) (in combination with Anti-PD-1 and Radiation, FIG. 1 legend): increases survival
- Survival at Day 85 (surviving mice / mice per arm at Day 85, same dosing): 1/10
